According to US12213860B2, “Method for separating mammalian sperm, artificial insemination method, and in vitro fertilization method” (Hiroshima University, priority 2017, dated 2025):
Each block holds one compound with its values, some of them ahead of it.

Key:
Type in all cases: cell-based
[1] = system: bovine sperm; assay: Percentages of X-sperm and Y-sperm in floating bovine sperm by real-time PCR
Method: A frozen bovine semen provided by the Oita Prefectural Agriculture, Forestry and Fisheries Research Center was used. The frozen sperm were melted, and washed with an albumin-free HTF medium. The bovine sperm were incubated in a medium prepared by adding albumin and a TLR7 ligand to HTF at 37° C., 5% CO2 for 1 hour. The TLR7 ligand used was R-848 or imiquimod R-837 (hereinafter referred to as R-837). The content of R-848 was 0 μM, 0.003 μM, 0.03 μM, 0.3 μM, or 3 μM. The content of R-837 was 0.003 μM, 0.03 μM, 0.3 μM, 3 μM, 30 μM, or 300 μM. Then, after collecting the floating sperm in the upper layer and extracting DNA, the percentages of X-sperm and Y-sperm were determined by real-time PCR.

[2] = system: mouse sperm; assay: Percentages of X-sperm and Y-sperm in floating mouse sperm by real-time PCR; conditions: 0.3 μM treatment group
Method: Mouse sperm were incubated in a medium prepared by adding albumin and a TLR7 ligand to an embryo culture medium (HTF) at 37° C., 5% CO2 for 1 hour. The TLR7 ligand used was Resiquimod R-848 (hereinafter referred to as R-848). The content of R-848 was 0 μM, 0.003 μM, 0.03 μM, 0.3 μM, 1.5 μM, or 3 μM. The sperm floating in the upper layer were collected, and DNA was extracted. Then, the percentages of X chromosome-bearing sperm (hereinafter referred to as X-sperm) and Y chromosome-bearing sperm (hereinafter referred to as Y-sperm) were determined by real-time PCR (polymerase chain reaction).

[3] = system: mouse sperm; assay: Mouse in vitro fertilization with washed floating sperm; XX/XY chromosomes of embryos; conditions: floating sperm from 0.3 μM treatment group
Method: The floating sperm in the non-treatment group and 0.3 μM treatment group were washed, and then subjected to in vitro fertilization. The percentage of in vitro fertilization embryo bearing XX chromosomes or XY chromosomes was determined.

[4] = system: bovine sperm; assay: Bovine in vitro fertilization with upper layer sperm; fertilization, blastocyst rate and sexing by real-time PCR; conditions: bovine IVF, upper layer sperm from 0.03 μM R-848 treatment group
Method: Bovine in vitro fertilization was performed using the sperm in the upper layer rich in Y-sperm from the 0.03 μM R-848 treatment group. […] Next, sexing of the blastocyst embryos was performed by real-time PCR.

[5] = system: pig sperm; assay: Percentages of X-sperm and Y-sperm in floating pig sperm by real-time PCR; conditions: R-848 0.3 μM, 2 hours
Method: Pig sperm were incubated in a medium prepared by adding cysteine, glycine, and a TLR7 ligand to the Modena solution at 37° C., 5% CO2, 5% O2 for 2 hours. The TLR7 ligand used was R-848. The content of R-848 was 0 μM or 0.3 μM. After collecting the floating sperm in the upper layer and extracting DNA, the percentages of X-sperm and Y-sperm were determined by real-time PCR.

[6] = system: mouse sperm; assay: Separation of mouse sperm by hypergravity load (centrifugation) after TLR7 ligand incubation; X-/Y-sperm percentages in upper and lower layer; conditions: R-848 0.3 μM; for percentage of X-sperm in the lower layer of the medium: 30% of the lower layer; for percentage of Y-sperm in the upper layer of the medium: 30% of the upper layer
Method: Mouse sperm were incubated in a medium (500 μL) prepared by adding albumin and a TLR7 ligand to an embryo culture medium (HTF) at 37° C., 5% CO2 for 1 hour. The TLR7 ligand used was Resiquimod R-848 (hereinafter referred to as R-848). The content of R-848 was 0.3 μM. After 30 minutes, the media were centrifuged using a centrifuge (product name: Tabletop Micro Refrigerated Centrifuge Model 3520, produced by KUBOTA Corporation Co., Ltd.) at 37° C. for 30 minutes. The centrifugation was at a centrifugal force of 50×g, 100×g, or 500×g. For comparison, a system without centrifugation (0×g) was also prepared. After centrifugation, 150 μL of the upper layer (30% of the upper layer) of each of the media was collected, and the percentages of X-sperm and Y-sperm in each of the media were determined in the same manner as described above. In addition, 150 μL of the lower layer (30% of the lower layer) of each of the media was collected, and the percentages of X-sperm and Y-sperm in each of the media were determined in the same manner as described above.

[7] = system: mouse sperm; assay: Mouse in vitro fertilization with upper and lower layer sperm separated at 50×g; 2-cell, blastocyst embryo, XX/XY chromosomes; conditions: for 2-cell (%), (number of 2-cell/number of eggs)×100 / Blastocyst embryo (%), (number of blastocyst embryos/number of 2-cell)×100 / Blastocyst embryo (number) / XX chromosomes (%) of blastocyst embryos / XX chromosomes (number) of blastocyst embryos / XY chromosomes (%) of blastocyst embryos / XY chromosomes (number) of blastocyst embryos / 2-cell (number), observed cleavages in 24 hours: R-848 0.3 μM, 50×g
Method: Then, the percentages of blastocyst embryos bearing XX chromosomes or XY chromosomes were determined. In addition, a sperm population obtained by incubating in the same medium as described above at 37° C. for 60 minutes without addition of the TLR7 ligand and without centrifugation (non-treatment group) was subjected to in vitro fertilization in the same manner as described above to form a blastocyst embryo. Then, the percentages of blastocyst embryos bearing XX chromosomes or XY chromosomes were determined. In the column “2-cell” in Table 3, “number” represents number of observed cleavages in 24 hours, while “%” represents “(number of 2-cell/number of eggs)×100.” In the column “blastocyst embryo,” “number” represents number of formed blastocyst embryos, while “%” represents “(number of blastocyst embryos/number of 2-cell)×100.”

[8] = centrifugation at 100×g or more

SMILES: CC(C)Cn1cnc2c(N)nc3ccccc3c21 [R-837, imiquimod]
- percentage of Y-sperm in floating sperm ([1]; R-837 0.03 to 30 μM treatment groups): ≥ 70%

- effect on the fertilization function of the sperm ([7]; centrifugation on sperm incubated in medium supplemented with TLR7 ligand (R-848 0.3 μM, 50×g) vs non-treatment group): no effect
SMILES: CCOCc1nc2c(N)nc3ccccc3c2n1CC(C)(C)O [R-848, resiquimod]
- percentage of Y-sperm in floating sperm [2]: ≥ 80%
- XX chromosomes (%) of in vitro fertilization embryos [3]: 13%
- XX chromosomes (Number) of in vitro fertilization embryos ([3]; 98 embryos tested): 13
- XY chromosomes (Number) of in vitro fertilization embryos ([3]; 98 embryos tested): 85
- percentage of Y-sperm in floating sperm ([1]; R-848 0.03 to 0.3 μM treatment groups): ≥ 90%
- blastocyst embryo transfer rate [4]: 64.3%
- fertilization rate [4]: 71.7%
- male embryos (sexing of blastocyst embryos by real-time PCR) [4]: 87.8%
- percentage of Y-sperm in floating sperm [5]: ≥ 90%
- percentage of X-sperm in the lower layer of the medium ([6]; 0×g (without centrifugation)): exceeding 60%
- percentage of Y-sperm in the upper layer of the medium ([6]; 0×g (without centrifugation)): exceeding 80%
- percentage of X-sperm in the lower layer of the medium [6, 8]: below 50%
- percentage of Y-sperm in the upper layer of the medium [6, 8]: about 60%
- 2-cell (%), (number of 2-cell/number of eggs)×100 ([7]; lower layer group): 70%
- Blastocyst embryo (%), (number of blastocyst embryos/number of 2-cell)×100 ([7]; lower layer group): 70%
- Blastocyst embryo (number) ([7]; lower layer group): 48
- XX chromosomes (%) of blastocyst embryos ([7]; lower layer group): 81%
- XX chromosomes (number) of blastocyst embryos ([7]; lower layer group): 39
- XY chromosomes (%) of blastocyst embryos ([7]; lower layer group): 19%
- XY chromosomes (number) of blastocyst embryos ([7]; lower layer group): 9
- 2-cell (number), observed cleavages in 24 hours ([7]; lower layer group, 99 eggs): 69
- 2-cell (%), (number of 2-cell/number of eggs)×100 ([7]; upper layer group): 79%
- Blastocyst embryo (%), (number of blastocyst embryos/number of 2-cell)×100 ([7]; upper layer group): 73%
- Blastocyst embryo (number) ([7]; upper layer group): 59
- XX chromosomes (%) of blastocyst embryos ([7]; upper layer group): 10%
- XX chromosomes (number) of blastocyst embryos ([7]; upper layer group): 6
- XY chromosomes (%) of blastocyst embryos ([7]; upper layer group): 90%
- XY chromosomes (number) of blastocyst embryos ([7]; upper layer group): 53
- 2-cell (number), observed cleavages in 24 hours ([7]; upper layer group, 103 eggs): 81
